Tests used:
Assay in all cases: relative viability (nuclei count vs DMSO), 5 days (fraction); higher = more cells survive
Vemurafenib + Lapatinib = compound: CCCS(=O)(=O)Nc1ccc(F)c(C(=O)c2c[nH]c3ncc(-c4ccc(Cl)cc4)cc23)c1F [Vemurafenib] + CS(=O)(=O)CCNCc1ccc(-c2ccc3ncnc(Nc4ccc(OCc5cccc(F)c5)c(Cl)c4)c3c2)o1 [Lapatinib] (partner 2 µM)
Procedure, shortened: (§1)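 Lung cancer cell lines, seeded in 1536-well plates, were treated the following day by pin tool with a single drug or with five library-drug doses (not always all listed) in √10 steps on top of a fixed anchor-drug dose. Cells were fixed and nuclei stained in one step after 5 days, and nuclei were counted. Relative viability is the nuclei count for treated wells divided by that for vehicle wells, reported as medians of duplicate plates.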

Vemurafenib + Decitabine = compound: CCCS(=O)(=O)Nc1ccc(F)c(C(=O)c2c[nH]c3ncc(-c4ccc(Cl)cc4)cc23)c1F [Vemurafenib] + Nc1ncn([C@H]2C[C@H](O)[C@@H](CO)O2)c(=O)n1 [Decitabine] (partner 2 µM)
Procedure, shortened: as §1

OSI-027 + Decitabine = compound: COc1cccc2cc(-c3nc([C@H]4CC[C@H](C(=O)O)CC4)n4ncnc(N)c34)[nH]c12 [OSI-027] + Nc1ncn([C@H]2C[C@H](O)[C@@H](CO)O2)c(=O)n1 [Decitabine] (partner 2 µM)
Procedure, shortened: as §1

Alpelisib + Bortezomib = compound: Cc1nc(NC(=O)N2CCC[C@H]2C(N)=O)sc1-c1ccnc(C(C)(C)C(F)(F)F)c1 [Alpelisib] + CC(C)C[C@H](NC(=O)[C@H](Cc1ccccc1)NC(=O)c1cnccn1)B(O)O [Bortezomib] (partner 0.002 µM)
Procedure, shortened: as §1

**Q.** How did the relative viability (Vemurafenib + Lapatinib; first compound 0.03162 µM) turn out when UMC-11 was run?
**A.** 0.698

**Q.** And the relative viability (Vemurafenib + Lapatinib; first compound 0.1 µM)?
**A.** 0.956

**Q.** And the relative viability (Vemurafenib + Lapatinib; first compound 0.3162 µM)?
**A.** 0.73

**Q.** And the relative viability (Vemurafenib + Lapatinib; first compound 1 µM)?
**A.** 0.625

**Q.** What about the relative viability (Vemurafenib + Decitabine; first compound 0.03162 µM) of the same cell line?
**A.** 0.568

**Q.** What about the relative viability (Vemurafenib + Decitabine; first compound 0.1 µM) of the same cell line?
**A.** 0.595

**Q.** What about the relative viability (Vemurafenib + Decitabine; first compound 1 µM) of the same cell line?
**A.** 0.545

**Q.** And the relative viability (OSI-027 + Decitabine; first compound 0.01 µM)?
**A.** 0.612

**Q.** And the relative viability (OSI-027 + Decitabine; first compound 0.03162 µM)?
**A.** 0.647

**Q.** And the relative viability (OSI-027 + Decitabine; first compound 0.1 µM)?
**A.** 0.52

**Q.** And the relative viability (OSI-027 + Decitabine; first compound 0.3162 µM)?
**A.** 0.492

**Q.** And the relative viability (OSI-027 + Decitabine; first compound 1 µM)?
**A.** 0.417

**Q.** What about the relative viability (Alpelisib + Bortezomib; first compound 0.04 µM) of the same cell line?
**A.** 0.677

**Q.** And the relative viability (Alpelisib + Bortezomib; first compound 0.1265 µM)?
**A.** 0.981

**Q.** What about the relative viability (Alpelisib + Bortezomib; first compound 0.4 µM) of the same cell line?
**A.** 0.672

**Q.** And the relative viability (Alpelisib + Bortezomib; first compound 1.265 µM)?
**A.** 0.734

**Q.** What about the relative viability (Alpelisib + Bortezomib; first compound 4 µM) of the same cell line?
**A.** 0.465

Source: the supplement of paper PMC10307832
